Test results from patent US10172356B2, “Bipyridine compound and use of same for noxious arthropod control” (Sumitomo Chemical Company, Limited, priority 2015, dated 2019).

Columns and labels:
Type in all cases: in vivo
[1] = test system: western corn rootworm (Diabrotica virgifera virgifera); assay: Test Example 10: western corn rootworm on corn seedling immersed in diluted solution, 500 ppm; details: 120 h, corn seedling immersed 30 seconds, second instar larvae, after 5 days, 25° C., read-out: Mortality of insects
Procedure: The compound S-1 was mixed with a mixed solution of acetone and polyoxyethylene sorbitan mono-cocoate (acetone and polyoxyethylene sorbitan mono-cocoate=95 : 5 (weight ratio)) a ratio of 50 μL of the mixed solution per 1 mg of the compound S-1, and the resulting mixtures were then diluted with ion-exchange water containing 0.03% by volume of shindain (registered trademark, manufactured by Sumitomo Chemical Co. Ltd.) so that the concentration of the compound S-1 was set to 500 ppm to prepare the diluted solution of the compound S-1.
Corns (Xea mays) were sown on a tray overlaid with damped KimWipes (registered trademark). After corns were grown for 5 days, the entire seedling of the corn was immersed into the diluted solution for 30 seconds. After the seedling was dried, two grains of the seedling were installed in a plastic petri dish ([…]), and ten heads of western corn rootworm (Diabrotica virgifera virgifera) at the second instar larval stages were released onto the petri dish and the petri dish was covered with the lid. The petri dish was held at 25° C. and after 5 days, the number of died insects was counted and the mortality of insects was calculated by the following equation. Mortality of insects (%)=(Number of dead insects/Number of tested insects)×100
Similarly, using the compounds S-2, S-3, S-7, S-10, O-1 and O-2 instead of the compound S-1, the tests were carried out.

[2] = test system: cabbage moth (Plutella xylostella); assay: Test Example 7: cabbage moth on sprayed cabbage, 500 ppm; details: 120 h, 20 mL/cup sprayed on cabbage, second instar larvae, after 5 days, 25° C., read-out: Mortality of insects
Procedure: Each of the compounds S-1, S-5, S-7, S-8, S-9, S-10, O-1, and O-2 was made to a formulation according to a similar method to that described in the Formulation example 5 and was then diluted with water so that each of the active ingredient concentration was set to 500 ppm to prepare each of the diluted solution.
A cabbage in the third leaf stage was planted in a polyethylene cup, and thereto was sprayed the diluted solution in ratio 20 mL/cup. After the above-mentioned dilutions were dried, and the stem and leaf thereof was cut and then was stalled in a 50 mL cup, and five heads of cabbage moth (Plutella xylostella) at the second instar larval stages were released into the cup and the cup was covered with the lid. The cup was held at 25° C. and after 5 days, the number of died insects was counted and the mortality of insects was calculated by the following equation. Mortality of insects (%)=(Number of dead insects/Number of tested insects)×100

[3] = test system: cabbage moth (Plutella xylostella); assay: Test Example 8: cabbage moth on sprayed cabbage, 200 ppm; details: 120 h, 20 mL/cup sprayed on cabbage, second instar larvae, after 5 days, 25° C., read-out: Mortality of insects
Procedure: Each of the compounds S-7, S-8, S-9, S-10, and O-2 was made to a formulation according to a similar method to that described in the Formulation example 5 and was then diluted with water so that each of the active ingredient concentration was set to 200 ppm to prepare each of the diluted solution.
A cabbage in the third leaf stage was planted in a polyethylene cup, and thereto was sprayed the diluted solution in a ratio of 20 mL/cup. After the above-mentioned dilutions were dried, and the stem and leaf thereof was cut and then was installed in a 50 mL cup, and five heads of cabbage moth (Plutella xylostella) at the second instar larval stages were released into the cup and the cup was covered with the lid. The cup was held at 25° C. and after 5 days, the number of died insects was counted and the mortality insects was calculated by the following equation. Mortality of insects (%)=(Number of dead insects/Number of tested insects)×100

[4] = test system: cotton aphid (Aphis gossypii); assay: Comparative Experiment 2 (method of Test Example 2: cotton aphid, spray, 200 ppm); details: cotton aphid on cucumber seedling, 200 ppm (method of Test Example 2)
Procedure: Cucumber seedling (on the developmental stage of the first true leaf) was planted in a polyethylene cup and 30 heads of cotton aphid (Aphis gossypii) (all stages of life) were released onto the leaves of the cucumber and allowed to stand for 1 day. The diluted solutions 20 mL were sprayed into the seedling. Cucumber (cv; Sagami-hanjiro-fushinari) was grown in a polyethylene cup until the first true leaf was developed. Approximately 30 heads of cotton aphid (Aphis gossypii) (including the adults and the larvae) was released onto the leaves of the […] and next day, the above-mentioned testing drug dilutions 20 mL were sprayed. After 6 days, the number of the surviving insects that were parasitic on the leaves of the cucumber was examined and the controlling value was calculated by the following equation. Controlling value (%)={1-(Cb×Tai)/(Cai×Tb)}×100 wherein the symbols in the formula represent the following descriptions. Cb: Number of the insects before treatment in untreated area; Cai: Number of the surviving parasitic insects at the time of the investigation in untreated area; Tb: Number of the insects before treatment in treated area; Tai: Number of the surviving parasitic insects at the time of the investigation in treated area; Here the “untreated area” represents an area that was sprayed by a diluted solution of the formulation described in the Formulation Example 5 without the compound A with water in the same amount as that of the treated area. […] Here A represents 100%, B represents 90 to 99%, C represents 60 to 89%, D represents 30 to 59% and represents 0 to 29% as a control value.

[5] = test system: brown planthopper (Nilaparvata lugens); assay: Comparative Experiment 5 (method of Test Example 5: brown planthopper, spray, 200 ppm); details: brown planthopper on rice seedling, 200 ppm (method of Test Example 5)
Procedure: Rice seedling (on the developmental stage of the second true leaf) was planted in a polyethylene cup, and the diluted solutions 10 mL were sprayed. After air drying, 20 heads of 3rd to 4th instar larvae of brown planthopper (Nilaparvata lugens) were released onto the rice leaves and the plants were held at 25° C. in a greenhouse. After 6 days, the number of the surviving insects that were parasitic on the leaves of the rice was examined and the controlling value was calculated by the following equation. Controlling value (%)={1-(Cb×Tai)/(Cai×Tb)}×100 wherein the symbols in the formula represent the following descriptions. Cb: Number of the insects before treatment in untreated area; Cai: Number of the surviving parasitic insects at the time of the investigation in untreated area; Tb: Number of the insects before treatment in treated area; Tai: Number of the surviving parasitic insects at the time of the investigation in treated area; Here the “untreated area” represents an area that was sprayed by a diluted solution of the formulation described in the Formulation Example 5 without the compound A with water in the same amount as that of the treated area. […] Here A represents 100%, B represents 90 to 99%, C represents 60 to 89%, D represents 30 to 59% and represents 0 to 29% as a control value.

[6] = test system: cotton aphid (Aphis gossypii); assay: Comparative Experiment 3 (method of Test Example 3: cotton aphid, irrigation, 200 ppm); details: cotton aphid on cucumber seedling, irrigation into plant foot, 200 ppm (method of Test Example 3)
Procedure: Cucumber seedling (on the developmental stage of the second true leaf) was planted in a polyethylene cup, and the diluted solutions 5 mL were irrigated into the plant foot, and the plants were held at 25° C. in a greenhouse for 7 days. Approximately 30 heads of cotton aphid (Aphis gossypii) (all stages of life) were inoculated onto the cucumber leaves and the plants were held in a greenhouse for additional 6 days, and then the number of the surviving […] parasitic on the cucumber leaves was examined and the controlling value was calculated by the following equation. Controlling value (%)={1-(Cb×Tai)/(Cai×Tb)}×100 wherein the symbols in the formula represent the following descriptions. Cb: Number of the insects before treatment in untreated area; Cai: Number of the surviving parasitic insects at the time of the investigation in untreated area; Tb: Number of the insects before treatment in treated area; Tai: Number of the surviving parasitic insects at the time of the investigation in treated area; Here the “untreated area” represents an area that was sprayed by a diluted solution of the formulation described in the Formulation Example 5 without the compound A with water in the same amount as that of the treated area. […] Here A represents 100%, B represents 90 to 99%, C represents 60 to 89%, D represents 30 to 59% and represents 0 to 29% as a control value.

[7] = test system: female adult housefly (Musca domestica); assay: whole plant or invertebrate; details: 24 h, read-out: Mortality of insects
Procedure: Each of the compounds S-2, S-3, S-7, S-8, and N-1 was made to a formulation according to a similar method to that described in the Formulation example 5 and was then diluted with water so that each of the active ingredient concentration was set to 500 ppm to prepare each of the diluted solution.
The bottom of the polyethylene cup having 5.5 cm diameter was matted with the same size of a filter paper, and 0.7 mL of the diluted solution was added dropwise to the filter paper and 30 mg sucrose as bait was placed in the cup uniformly. Ten (10) heads of female adult housefly (Musca domestica) were released into the polyethylene cup and the cup was covered with the lid. After 24 hours, the life and death of housefly was examined and the number of died insects was counted and the mortality of insects was calculated by the following equation. Mortality of insects (%)=(Number of dead insects/Number of tested insects)×100

SMILES | mortality at 500 ppm [1] | mortality at 500 ppm [2] | mortality at 200 ppm [3] | control value, Comparative Experiment 2 [4] | control value, Comparative Experiment 5 [5] | control value, Comparative Experiment 3 [6] | mortality at 500 ppm [7]
CCS(=O)(=O)c1cccnc1-c1ccc(OS(=O)(=O)C(F)(F)F)cn1 [Compound O-1] | ≥ 80% | ≥ 80% | – | – | – | – | –
CCS(=O)(=O)c1cccnc1-c1ccc(OS(=O)(=O)CC(F)(F)F)cn1 [Compound O-2] | ≥ 80% | ≥ 80% | ≥ 80% | – | – | – | –
CCS(=O)(=O)c1cccnc1-c1ccc(SCC(F)(F)F)cn1 [Compound S-1] | – | ≥ 80% | – | A (A represents 100%) | A (A represents 100%) | B (B represents 90 to 99%) | –
CCS(=O)(=O)c1cccnc1-c1ccc(SCC(F)(F)C(F)(F)F)cn1 [Compound S-4] | ≥ 80% | – | – | – | – | – | –
CCS(=O)(=O)c1cccnc1-c1ccc(SC(F)(F)F)cn1 [Compound S-7] | ≥ 80% | ≥ 80% | ≥ 80% | A (A represents 100%) | A (A represents 100%) | A (A represents 100%) | 100%
CCS(=O)(=O)c1cccnc1-c1ccc([S+]([O-])C(F)(F)F)cn1 (centres unmarked) [Compound S-8] | – | – | – | A (A represents 100%) | A (A represents 100%) | A (A represents 100%) | –
FC(F)(F)CSc1ccc(-c2ccc(C(F)(F)F)cc2)nc1 [Compound V-7, reference compound] | – | – | – | E (represents 0 to 29% as a control value) | D (D represents 30 to 59%) | E (represents 0 to 29% as a control value) | –
FC(F)(F)Sc1ccc(-c2ccc(C(F)(F)F)cc2Cl)nc1 [Compound V-11, reference compound] | – | – | – | E (represents 0 to 29% as a control value) | E (represents 0 to 29% as a control value) | E (represents 0 to 29% as a control value) | –
[O-][S+](c1ccc(-c2ccc(C(F)(F)F)cc2Cl)nc1)C(F)(F)F (centres unmarked) [Compound V-12, reference compound] | – | – | – | E (represents 0 to 29% as a control value) | E (represents 0 to 29% as a control value) | E (represents 0 to 29% as a control value) | –
